Measurements as given in patent US6632824B2, “Aryl-8-azabicyclo[3.2.1]octanes for the treatment of depression” (Wyeth, priority 2001, dated 2003).
pIC50, pKi: −log10 of the molar value. Structures can show the parent of a compound that is named as a salt.

Tests used:
Human 5-HT Transporter = target: T1, Human 5-HT Transporter (Homo sapiens, UniProt P31645); experiment: Inhibition of 3H-5-HT Uptake by Cells Possessing the Human 5-HT Transporter (HC 5HT Transporter); assay type: cell-based
T1 construct: endogenous in cells; host or cells: JAR human carcinoma cells, treated with staurosporine
T1 sequence (P31645 whole entry): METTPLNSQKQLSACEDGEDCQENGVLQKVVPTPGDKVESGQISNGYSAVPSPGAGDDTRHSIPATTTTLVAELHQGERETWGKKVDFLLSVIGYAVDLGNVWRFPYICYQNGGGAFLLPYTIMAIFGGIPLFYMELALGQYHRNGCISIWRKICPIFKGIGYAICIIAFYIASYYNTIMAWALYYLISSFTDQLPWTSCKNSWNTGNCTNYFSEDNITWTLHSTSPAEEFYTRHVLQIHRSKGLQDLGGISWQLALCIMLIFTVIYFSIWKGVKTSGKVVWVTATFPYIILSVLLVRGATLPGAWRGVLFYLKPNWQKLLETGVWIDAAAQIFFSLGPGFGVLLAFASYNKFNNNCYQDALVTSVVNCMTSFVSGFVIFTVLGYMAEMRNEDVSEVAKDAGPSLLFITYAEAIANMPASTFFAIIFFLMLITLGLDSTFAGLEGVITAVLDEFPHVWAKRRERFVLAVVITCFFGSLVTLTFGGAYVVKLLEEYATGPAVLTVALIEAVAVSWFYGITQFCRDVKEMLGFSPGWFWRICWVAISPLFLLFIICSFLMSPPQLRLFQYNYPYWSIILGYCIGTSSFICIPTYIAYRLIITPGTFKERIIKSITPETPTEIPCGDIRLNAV
Procedure: On the day of assay, vehicle, excess of fluoxetine, or test compound is added to various wells on the plate. All wells then receive ^3H-5-HT and are incubated at 37° C. for 5 min. The wells are then washed with ice cold 50 mM Tris HCl (pH 7.4) buffer and aspirated to remove free ^3H-5-HT. 25 μl of 0.25 M NaOH is then added to each well to lyse the cells and 75 μl scintillation cocktail (Microscint™ 20) added prior to quantitation on a Packard TopCount machine. Tubes with vehicle represent total possible uptake; radioactivity counted in tubes with fluoxetine represent nonspecific binding/uptake and is subtracted from the total possible uptake to give total possible specific uptake. […] Specific uptake is then expressed as a % of control values and is analyzed using nonlinear regression analysis (Prizm) to determine IC50 values.

human 5-HT1A receptor = target: T2, human 5-HT1A receptor (Homo sapiens, UniProt P08908); experiment: HC 5-HT1A binding assay ([3H]8-OH-DPAT radioligand binding, h5-HT1A.CHO cell membranes)
T2 construct: expressed in transfected cells
T2 sequence (P08908 1-422): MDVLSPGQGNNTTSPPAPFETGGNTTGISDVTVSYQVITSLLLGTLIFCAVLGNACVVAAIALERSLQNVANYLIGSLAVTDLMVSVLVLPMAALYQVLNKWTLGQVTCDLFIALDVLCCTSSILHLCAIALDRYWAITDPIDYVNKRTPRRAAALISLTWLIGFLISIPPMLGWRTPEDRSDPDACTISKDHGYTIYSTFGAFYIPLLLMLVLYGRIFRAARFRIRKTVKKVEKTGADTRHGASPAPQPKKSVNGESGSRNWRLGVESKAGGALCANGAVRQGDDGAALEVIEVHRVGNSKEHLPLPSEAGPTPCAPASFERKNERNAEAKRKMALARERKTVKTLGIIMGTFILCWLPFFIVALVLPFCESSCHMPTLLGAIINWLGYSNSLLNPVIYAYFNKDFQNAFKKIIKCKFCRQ
Procedure: Cloning of Human 5-HT1A Receptor:
A stable Chinese hamster ovary cell line expressing the human 5-HT1A receptor subtype (h5-HT1A.CHO cells) is employed throughout this study. Cells are maintained in DMEM supplemented with 10% fetal calf serum, non-essential amino acids and penicillin/streptomycin.
Cells are grown to 95-100% confluency as a monolayer before membranes are harvested for binding studies. Cells are gently scraped from the culture plates, transferred to centrifuge tubes, and washed twice by centrifugation (2000 rpm for 10 min., 4° C.) in buffer (50 mM Tris; pH 7.5). The resulting pellets are aliquoted and placed at −80 C. On the day of assay, the cells are thawed on ice, and resuspended in buffer. Studies are conducted using [^3H]8-OH-DPAT as the radioligand. The binding assay is performed in 96-well microtiter plates in a final total volume of […] of buffer. […] Non-specific binding is determined in the presence of 10 μM 5HT. Saturation analysis is conducted by using [^3H]8-OH-DPAT at concentrations ranging from 0.3-30 nM. Following a 30 minute incubation at room temperature, the reaction is terminated by the addition of ice cold buffer and rapid filtration using a M-96 Brandel Cell Harvester (Gaithersburg, Md.) through a GF/B filter presoaked for 30 minutes in 0.5% polyethyleneimine.
^3H-Paroxetine Binding to Assess Affinity of Drugs for the Serotonin Transporter ([…]):
(§1) Briefly, frontal cortical membranes prepared from male S.D. rats are incubated with ^3H-paroxetine (0.1 nM) for 60 min at 25° C. All tubes contain either vehicle, test compound (one to eight concentrations), or a saturating concentration of fluoxetine (10 μM) to define […]. All reactions are terminated by the addition of ice cold Tris buffer followed by rapid filtration using a Tom Tech filtration device to separate bound from free ^3H-paroxetine.

5-HT transporter = target: T3, 5-HT transporter (Rattus norvegicus, UniProt P31652); experiment: Rat Brain 3H-Paroxetine Binding Assay (RB 5HT Transporter)
T3 construct: frontal cortical membranes prepared from male S.D. rats; from tissue; host or cells: rat frontal cortex membranes (male Sprague-Dawley)
T3 sequence (P31652 whole entry): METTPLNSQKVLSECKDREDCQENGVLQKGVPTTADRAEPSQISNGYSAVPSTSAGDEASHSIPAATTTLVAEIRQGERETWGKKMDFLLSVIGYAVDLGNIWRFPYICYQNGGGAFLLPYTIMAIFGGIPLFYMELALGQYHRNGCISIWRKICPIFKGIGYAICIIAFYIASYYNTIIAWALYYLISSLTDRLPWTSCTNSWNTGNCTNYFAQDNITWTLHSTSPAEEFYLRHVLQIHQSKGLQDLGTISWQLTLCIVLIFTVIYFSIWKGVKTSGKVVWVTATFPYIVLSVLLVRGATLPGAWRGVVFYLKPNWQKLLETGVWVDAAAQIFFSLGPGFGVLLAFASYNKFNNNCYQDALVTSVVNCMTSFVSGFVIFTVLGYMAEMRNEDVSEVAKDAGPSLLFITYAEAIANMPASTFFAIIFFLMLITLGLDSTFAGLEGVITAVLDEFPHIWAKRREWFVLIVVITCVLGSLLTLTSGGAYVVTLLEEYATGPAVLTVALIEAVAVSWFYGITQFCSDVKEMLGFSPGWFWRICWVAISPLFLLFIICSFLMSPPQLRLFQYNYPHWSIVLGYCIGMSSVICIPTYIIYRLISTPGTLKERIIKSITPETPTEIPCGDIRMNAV
Procedure: Rat Brain ^3H-Paroxetine Binding Assay (RB 5HT Transporter):
This assay is used to determine a compound's affinity of the 5-HT transporter.
as §1, with “with ^3H-parxetine” for “with ^3H-paroxetine”, “60 min.” for “60 min”

[1] = target: T4, cloned human 5-HT1A receptors (Homo sapiens, UniProt P08908); experiment: Assessment of agonism/antagonism at the 5-HT1A receptor using [35S]-GTPγS binding; assay type: biochemical
T4 construct: expressed in transfected cells
T4 sequence (P08908 1-422): T2 sequence (P08908 1-422)
Procedure: Assessment of Agonism/Antagonism at the 5-HT1A Receptor using [^35S]-GTPγS Binding to Cloned Human 5-HT1A Receptors:
Briefly, 5-HT1A cloned receptor membrane fragments (as used for 5-HT1A receptor binding assays) are stored at −70° C. until needed. When needed, membranes are rapidly thawed, centrifuged at 40,000× g for 10 minutes and resuspended at 4° C. for 10 minutes in assay buffer (25 mM HEPES, 3 mM MgCl2, 100 mM NaCl, 1 mM EDTA, 10 uM GDP, […], pH 8.0). These membranes are then incubated for 30 min at 30° C. with [^35S]GTPgS (1 nM) in the presence of vehicle, test compound (one to eight concentrations), or excess 8-OH-DPAT to define maximum agonist response. All reactions are terminated by the addition of ice cold Tris buffer followed by rapid filtration using a Tom Tech® filtration device to separate bound from free [^35S]GTPgS. Agonists produce an increase in the amount of [^35S]GTPgS bound whereas antagonists produce no increase in binding. Bound radioactivity is counted and analyzed as above.

FC(F)(F)c1cccc(OCCN2C3C=C(c4ccc5ccccc5c4)CC2CC3)c1 (stereo not drawn) (as salt: oxalate) [Example 11, 3-Naphthalen-2-yl-8-[2-(3-trifluoromethyl-phenoxy)-ethyl]-8-aza-bicyclo[3.2.1]oct-2-ene]
melting point: 128 to 130 °C (dec.)

COc1cc(NCCN2C3C=C(c4ccc5ccccc5c4)CC2CC3)c2ncccc2c1 (stereo not drawn) (as salt: oxalate) [Example 5, 6-Methoxy-N-{2-[3-(2-naphthyl)-8-azabicyclo[3.2.1]oct-2-en-8-yl]ethyl}-8-quinolinamine]
melting point: 179 to 182 °C

C1=C(c2ccc3ccccc3c2)CC2CCC1N2CCOc1cccc2c1OCCO2 (stereo not drawn) [Example 4, 8-[2-(2,3-Dihydro-benzo[1,4]dioxin-5-yloxy)-ethyl]-3-naphthalen-2-yl-8-aza-bicyclo[3.2.1]oct-2-ene]
pIC50 (Human 5-HT Transporter): 7.66
pKi (human 5-HT1A receptor): 6.48
pKi (5-HT transporter): 9.77

C1=C(c2c[nH]c3ccccc23)CC2CCC1N2CCOc1cccc2ncccc12 (stereo not drawn) (as salt: oxalate) [Example 3, 2-[3-(1H-Indol-3-yl)-8-azabicyclo[3.2.1]oct-2-en-8-yl]ethyl 5-quinolinyl Ether]
melting point: 91 to 93 °C (dec.)

C1=C(c2ccc3ccccc3c2)CC2CCC1N2CCOc1cccc2c1OCCO2 (stereo not drawn) (as salt: oxalate) [Example 4, 8-[2-(2,3-Dihydro-benzo[1,4]dioxin-5-yloxy)-ethyl]-3-naphthalen-2-yl-8-aza-bicyclo[3.2.1]oct-2-ene]
melting point: 151 to 153 °C (dec.)

Clc1cc(NCCN2C3C=C(c4ccc5ccccc5c4)CC2CC3)c2ncccc2c1 (stereo not drawn) [Example 6, 6-Chloro-N-{2-[3-(2-naphthyl)-8-azabicyclo[3.2.1]oct-2-en-8-yl]ethyl}-8-quinolinamine]
melting point: 205 to 206 °C
pKi (5-HT transporter): 8.12

c1ccc2cc(C3CC4CCC(C3)N4CCOc3cccc4cccnc34)ccc2c1 (stereo not drawn) [Example 17, 8-{2-[3-(2-Naphthyl)-8-azabicyclo[3.2.1]oct-8-yl]ethoxy}quinoline]
melting point: 110 to 113 °C
pKi (5-HT transporter): 9.89

c1ccc2cc(C3CC4CCC(C3)N4CCSc3cccc4cccnc34)ccc2c1 (stereo not drawn) [Example 18, 8-({2-[3-(2-Naphthyl)-8-azabicyclo[3.2.1]oct-8-yl]ethyl}sulfanyl)quinoline]
melting point: 200 to 203 °C
pIC50 (Human 5-HT Transporter): 8.46
pKi (human 5-HT1A receptor): 6.59
pKi (5-HT transporter): 10.22

FC(F)(F)c1cccc(OCCN2C3C=C(c4ccc5ccccc5c4)CC2CC3)c1 (stereo not drawn) [Example 11, 3-Naphthalen-2-yl-8-[2-(3-trifluoromethyl-phenoxy)-ethyl]-8-aza-bicyclo[3.2.1]oct-2-ene]
pIC50 (Human 5-HT Transporter): 6.72
pKi (5-HT transporter): 7.47

c1ccc2cc(C3CC4CCC(C3)N4CCOc3cccc4[nH]ccc34)ccc2c1 (stereo not drawn) [Example 12, 4-[2-(3-Naphthalen-2-yl-8-aza-bicyclo[3.2.1]oct-8-yl)-ethoxy]-1H-indole]
pIC50 (Human 5-HT Transporter): 7.45
pKi (5-HT transporter): 9.41

COc1cc(NCCN2C3C=C(c4ccc5ccccc5c4)CC2CC3)c2ncccc2c1 (stereo not drawn) [Example 5, 6-Methoxy-N-{2-[3-(2-naphthyl)-8-azabicyclo[3.2.1]oct-2-en-8-yl]ethyl}-8-quinolinamine]
pIC50 (Human 5-HT Transporter): 7.37
pKi (5-HT transporter): 8.57

c1ccc2cc(C3CC4CCC(C3)N4CCOc3cccc4[nH]ccc34)ccc2c1 (stereo not drawn) (as salt: oxalate) [Example 12, 4-[2-(3-Naphthalen-2-yl-8-aza-bicyclo[3.2.1]oct-8-yl)-ethoxy]-1H-indole]
melting point: 119 to 120 °C (dec.)

COc1ccc2cc(C3=CC4CCC(C3)N4CCOc3cccc4[nH]ccc34)ccc2c1 (stereo not drawn) (as salt: oxalate) [Example 10, 4-{2-[3-(6-Methoxy-naphthalen-2-yl)-8-aza-bicyclo[3.2.1]oct-2-en-8-yl]-ethoxy}-1H-indole]
melting point: 130 to 132 °C (dec.)

COc1cc(OCCN2C3C=C(c4ccc5ccccc5c4)CC2CC3)c2ncccc2c1 (stereo not drawn) (as salt: oxalate)
melting point: 100 to 103 °C

C1=C(c2c[nH]c3ccccc23)CC2CCC1N2CCOc1cccc2ncccc12 (stereo not drawn) [Example 3, 2-[3-(1H-Indol-3-yl)-8-azabicyclo[3.2.1]oct-2-en-8-yl]ethyl 5-quinolinyl Ether]
pIC50 [1]: 5.93
Emax ([1]; excess 8-OH-DPAT defines maximum agonist response, read-out: [35S]GTPgS Emax): 0%
pIC50 (Human 5-HT Transporter): 7.06
pKi (human 5-HT1A receptor): 6.76
pKi (5-HT transporter): 8.64

C1=C(c2ccc3ccccc3c2)CC2CCC1N2CCNc1cccc2cccnc12 (stereo not drawn) [Example 7, N-{2-[3-(2-Naphthyl)-8-azabicyclo[3.2.1]oct-2-en-8-yl]ethyl}-8-quinolinamine]
melting point: 199 to 200 °C
pKi (5-HT transporter): 8.79

COc1ccc2cc(C3=CC4CCC(C3)N4CCOc3cccc4[nH]ccc34)ccc2c1 (stereo not drawn) [Example 10, 4-{2-[3-(6-Methoxy-naphthalen-2-yl)-8-aza-bicyclo[3.2.1]oct-2-en-8-yl]-ethoxy}-1H-indole]
pIC50 (Human 5-HT Transporter): 7.23
pKi (5-HT transporter): 8.95
